# Source: patent US20240293551A1, “USE OF ST-TYPE LIPID COMPOUNDS IN PREPARATION OF NUCLEIC ACID DELIVERY REAGENT AND RELATED PRODUCT” (INSTITUTE OF BASIC MEDICAL SCIENCES CHINESE ACADEMY OF …, priority 2021, published 2024)
# Test system: PGY-sRNA-26
# Experiment: In vivo delivery study of lipid-nucleic acid mixture (oral gavage, RT-qPCR of PGY-sRNA-26 in tissues)
# Parameters: species or system mouse
# Details: C57BL/6 mice, gavage, 100 μg lipid: 10 nmol PGY-sRNA-26, 12 hours; for delivery efficacy over each tissue and blood tested (broad-spectrum delivery): all tissues and blood tested; for oral delivery of single-stranded sRNA nucleic acids into mouse intestinal tissue: intestine
# Method in brief: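 C57BL/6 male mice (~6 weeks, 20-24 g), fasted 12 h, were gavaged with 10 nmol 3′-methylated PGY-sRNA-26 mixed with 100 μg lipid (heated 90° C. 15 min), versus saline or free sRNA (n=4 each). After 12 h, blood and tissues were Trizol-extracted; sRNA quantified by stem-loop RT-qPCR relative to U6.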
SMILES,delivery efficacy over each tissue and blood tested (broad-spectrum delivery),oral delivery of single-stranded sRNA nucleic acids into mouse blood,oral delivery of single-stranded sRNA nucleic acids into mouse brain tissue,oral delivery of single-stranded sRNA nucleic acids into mouse femur,oral delivery of single-stranded sRNA nucleic acids into mouse heart tissue,oral delivery of single-stranded sRNA nucleic acids into mouse intestinal tissue,oral delivery of single-stranded sRNA nucleic acids into mouse kidney tissue,oral delivery of single-stranded sRNA nucleic acids into mouse liver tissue,oral delivery of single-stranded sRNA nucleic acids into mouse lung tissue,oral delivery of single-stranded sRNA nucleic acids into mouse spleen tissue,oral delivery of single-stranded sRNA nucleic acids into mouse stomach tissue
CC(=O)OCC(=O)[C@@]1(O)CC[C@H]2[C@@H]3CCC4=CC(=O)CC[C@]4(C)[C@H]3[C@@H](O)C[C@@]21C [Lipid 582],exhibited the best delivery efficacy,can effectively orally deliver,can effectively orally deliver,can effectively orally deliver,can effectively orally deliver,can effectively orally deliver,can effectively orally deliver,can effectively orally deliver,can effectively orally deliver,can effectively orally deliver,can effectively orally deliver
CC(=O)[C@H]1CC[C@H]2[C@@H]3CC=C4C[C@@H](O)CC[C@]4(C)[C@H]3CC[C@]12C [Lipid 590],exhibited the best delivery efficacy,can effectively orally deliver,can effectively orally deliver,can effectively orally deliver,can effectively orally deliver,can effectively orally deliver,can effectively orally deliver,can effectively orally deliver,can effectively orally deliver,can effectively orally deliver,can effectively orally deliver
C[C@H](CCC(=O)NCC(=O)O)[C@H]1CC[C@H]2[C@@H]3CC[C@@H]4C[C@H](O)CC[C@]4(C)[C@H]3C[C@H](O)[C@]12C [Lipid 552],exhibited the best delivery efficacy,can effectively orally deliver,can effectively orally deliver,can effectively orally deliver,can effectively orally deliver,can effectively orally deliver,can effectively orally deliver,can effectively orally deliver,can effectively orally deliver,can effectively orally deliver,can effectively orally deliver
C[C@]12CC[C@@H](O)C[C@@H]1CC[C@@H]1[C@@H]2CC[C@]2(C)C(=O)CC[C@@H]12 [Lipid 563],exhibited the best delivery efficacy,can effectively orally deliver,can effectively orally deliver,can effectively orally deliver,can effectively orally deliver,can effectively orally deliver,can effectively orally deliver,can effectively orally deliver,can effectively orally deliver,can effectively orally deliver,can effectively orally deliver
"CC(C)CCC[C@@H](C)[C@H]1CC[C@H]2[C@@H]3CC[C@H]4CCCC[C@]4(C)[C@H]3CC[C@]12C [Lipid 653, 5α-cholestane (5R,8R,9S,10S,13R,14S,17R)-10,13-dimethyl-17-[(2R)-6-methylheptan-2-yl]-2,3,4,5,6,7,8,9,11,12,14,15,16,17-tetradecahydro-1H-cyclopenta[a]phenanthrene]",exhibited the best delivery efficacy,can effectively orally deliver,can effectively orally deliver,can effectively orally deliver,can effectively orally deliver,can effectively orally deliver,can effectively orally deliver,can effectively orally deliver,can effectively orally deliver,can effectively orally deliver,can effectively orally deliver
C[C@H](CCC(=O)O)[C@H]1CC[C@H]2[C@@H]3C(=O)C[C@@H]4C[C@H](O)CC[C@]4(C)[C@H]3CC[C@]12C [Lipid 586],,can effectively orally deliver,can effectively orally deliver,can effectively orally deliver,can effectively orally deliver,can effectively orally deliver,can effectively orally deliver,can effectively orally deliver,,can effectively orally deliver,can effectively orally deliver
"C[C@]12CC[C@H](O)C[C@@H]1CC[C@@H]1[C@@H]2CC[C@]2(C)[C@@H](O)CC[C@@H]12 [Lipid 548, 5α-androstanediol (3S,5S,8R,9S,10S,13S,14S,17S)-10,13-dimethyl-2,3,4,5,6,7,8,9,11,12,14,15,16,17-tetradecahydro-1H-cyclopenta[a]phenanthrene-3,17-diol]",exhibited the best delivery efficacy,can effectively orally deliver,can effectively orally deliver,can effectively orally deliver,can effectively orally deliver,can effectively orally deliver,can effectively orally deliver,can effectively orally deliver,can effectively orally deliver,can effectively orally deliver,can effectively orally deliver
CC(C)[C@H](C)[C@@H](O)[C@H](O)[C@@H](C)[C@H]1CC[C@H]2[C@@H]3COC(=O)[C@H]4C[C@H](O)[C@H](O)C[C@]4(C)[C@H]3CC[C@]12C [Lipid 508],exhibited the best delivery efficacy,can effectively orally deliver,can effectively orally deliver,,can effectively orally deliver,can effectively orally deliver,can effectively orally deliver,can effectively orally deliver,can effectively orally deliver,can effectively orally deliver,can effectively orally deliver
C[C@]12CCC(=O)C=C1CC[C@@H]1[C@@H]2[C@@H](O)C[C@@]2(C)[C@H]1CC[C@]2(O)C(=O)CO [Lipid 566],,can effectively orally deliver,,can effectively orally deliver,can effectively orally deliver,can effectively orally deliver,can effectively orally deliver,can effectively orally deliver,,,can effectively orally deliver
